{"source": "a melting point compilation (Tetko et al.; mined from patent text by program, amines drawn as free bases though some values may be those of a salt)"}
{"units": {"melting point": "°C"}}
{"molecule": "NC(=O)N(O)CCNC(=O)c1cccc(S(=O)(=O)c2ccc(Cl)cc2)c1", "melting point": "183 to 186"}
{"molecule": "O=C1C=C(Cc2ccccc2)CC1", "melting point": "32 to 33"}
{"molecule": "Cc1nnc(-c2ccc3ncn(-c4cccc(C(F)(F)F)c4)c3c2)o1", "melting point": "212 to 213"}
{"molecule": "CC1=C(C(=O)OC(C)(C)C)C(c2ccccc2[N+](=O)[O-])C(C(=O)OC(C)(C)C)=C(C)N1", "melting point": "159 to 161"}
{"molecule": "CCCCCN1C(=O)C2(COc3cc4c(cc32)OCO4)c2ccccc21", "note": "(stereo unspecified)", "melting point": "85 to 87"}
{"molecule": "COc1ccc2c(c1)CN(Nc1ccncc1)CC2", "melting point": "188 to 189"}
{"molecule": "C[C@H](c1ccncn1)[C@@](O)(CO)c1ccc(F)cc1F", "melting point": "148 to 150"}
{"molecule": "O=[N+]([O-])c1cc(NC(=S)N2CCCCN2)c(F)cc1Cl", "melting point": "118 to 120"}
{"molecule": "O=C(O)C(=NO)c1ccc(OCCOc2ccc3ccccc3c2)cc1", "melting point": "178 to 179"}
{"molecule": "O=C1c2ccccc2C(=O)N1Oc1ccc(-c2nc(=O)c3ccccc3s2)cn1", "melting point": "212 to 213"}
{"molecule": "CCCCCCCCCCCCCC(=O)N[C@H](C(=O)O)C(C)C", "melting point": "88 to 89"}
{"molecule": "C=CC(C)(C)C(=O)C(Oc1ccc(Cl)cc1)n1cnnc1", "note": "(stereo unspecified)", "melting point": "124 to 126"}
{"molecule": "CCCCC(=O)N(Cc1ccc(-c2ccccc2-c2nnn[nH]2)cc1Br)[C@H](C(=O)OCc1ccccc1)C(C)C", "melting point": "104 to 106"}
{"molecule": "c1coc(-c2nc(NCC3CC3)cc(-n3cccn3)n2)c1", "melting point": "101 to 102"}
{"molecule": "CCOC(=O)c1cnc2nc(C)c(OCC)cc2c1O", "melting point": "255 to 258"}
{"molecule": "CCCCCC1(Cl)Cc2cc(OCC(=O)O)c(Cl)c(Cl)c2C1=O", "note": "(stereo unspecified)", "melting point": "122 to 124"}
{"molecule": "O=C(O)C(=O)CC(=O)c1cccn1Cc1cc(F)cc(F)c1", "melting point": "166 to 168"}
{"molecule": "NC[C@@H]1CC[C@H](C(=O)O)C1", "note": "(relative stereo)", "melting point": "186 to 188"}
{"molecule": "CNC(Cc1ccccc1N)c1ccncc1", "note": "(stereo unspecified)", "melting point": "69 to 71"}
{"molecule": "COC(=O)C1CCN2C(=O)C(=O)c3cccc1c32", "note": "(stereo unspecified)", "melting point": "135 to 136"}
{"molecule": "CCc1oc2ccccc2c1C(=O)c1ccc(OCC(=O)O)cc1", "melting point": "172 to 175"}
{"molecule": "CC(C)(C)c1ccc2cc3cc(C(C)(C)C)ccc3cc2c1", "melting point": "249 to 253"}
{"molecule": "O=C(CCCC(=O)c1ccccc1)NC1CCN(Cc2ccc(Cl)c(Cl)c2)CC1", "melting point": 130}
{"molecule": "CC(=O)NC[C@H]1CN(c2ccc(C3CCN(c4nnc(C)s4)CC3)c(F)c2)C(=O)O1", "melting point": "193 to 195"}
{"molecule": "CCC(=O)N1C(=S)NC(C)=C(C(=O)OC)C1c1cccc([N+](=O)[O-])c1", "note": "(stereo unspecified)", "melting point": "167 to 171"}
{"molecule": "Nc1cc(C=O)nc(C2CCC2)c1F", "melting point": "134 to 135"}
{"molecule": "CC(=O)c1cc2c(cc1NC(=O)c1sccc1S(=O)(=O)Nc1onc(C)c1Cl)OCO2", "melting point": "191 to 193"}
{"molecule": "c1ccc(COc2ccc(-c3nc(COc4cccc(CCCCn5ccnc5)c4)co3)cc2)cc1", "melting point": "87 to 88"}
{"molecule": "CCN(CC)c1nc(C)nc2nc(-c3ccncc3)[nH]c12", "melting point": "228 to 230"}
{"molecule": "Cc1cc(C=CC#N)c(Cl)cc1F", "melting point": "90 to 91"}
{"molecule": "CNC(=O)c1ccccc1Nc1nc(Nc2ccc3c(c2)NCCNC3=O)ncc1Cl", "melting point": "232 to 237"}
{"molecule": "CS(=O)(=O)c1ccc(-c2ccc(I)n2-c2ccc(F)cc2)cc1", "melting point": "174 to 176"}
{"molecule": "COc1ccc(NC(=O)c2csc(Nc3ccc(C)cn3)n2)cc1OC", "melting point": "212 to 214"}
{"molecule": "Cc1ccnc2c(Oc3ccc([N+](=O)[O-])cc3)cccc12", "melting point": "148 to 149"}
{"molecule": "COc1ccc(N)c2c1oc1ccccc12", "melting point": "167 to 169"}
{"molecule": "O=C(O)C1=Cc2cc(Cl)cc(-c3cccs3)c2OC1C(F)(F)F", "note": "(stereo unspecified)", "melting point": "258 to 259"}
{"molecule": "COC1=CC(=O)C2=C(C1=O)C(Cl)C(Cl)CC2", "note": "(stereo unspecified)", "melting point": "119 to 123"}
{"molecule": "CN(C(=O)Oc1ccc(Cl)c(C(C)(C)C)c1)c1ccc(F)cc1", "melting point": "92 to 94"}
{"molecule": "Cc1cc(N(C)C)nc2ccc(Br)cc12", "melting point": "81.9 to 84.1"}
{"molecule": "CN(C)C=Nc1ccc2nnc(-c3ccc([N+](=O)[O-])o3)n2n1", "melting point": "291 to 296"}
{"molecule": "CC(=O)SCC(Cc1ccccc1)C(=O)Nc1cccc(C(=O)N[C@@H](Cc2ccccc2)C(=O)OCc2ccccc2)c1", "note": "(stereo partly specified)", "melting point": "89 to 91"}
{"molecule": "N#Cc1ccc2c(c1)NC(=O)C2c1ncnc2c1cnn2C1CCCCC1", "note": "(stereo unspecified)", "melting point": "> 300"}
{"molecule": "CCCCc1c(CO)ccc2ccc(OC)cc12", "melting point": "52 to 53"}
{"molecule": "CS(=O)(=O)c1ccc(C2=C(c3ccc(F)cc3)CCC2)cc1", "melting point": "138 to 139"}
{"molecule": "CC1=C(C(=C2SCSCS2)c2ccc(C)cc2)CN(C)O1", "melting point": "89 to 90"}
{"molecule": "Cc1c(-c2ccccc2)oc2c(COCCCl)cccc2c1=O", "melting point": "102 to 103"}
{"molecule": "CCOC(=O)C1=Cc2cc3ccccc3n2CC1", "melting point": "77 to 79"}
{"molecule": "CN1CCC[C@H]1c1cnc(Cl)cc1C(O)c1cc(Cl)ncc1[C@@H]1CCCN1C", "melting point": "80 to 82"}
{"molecule": "CCOC(=O)C1=CCCCC1S(=O)(=O)Nn1cccc1CC", "note": "(stereo unspecified)", "melting point": "77 to 78"}
{"molecule": "O=C1CC(c2cccc(-n3ccnn3)c2)=Nc2cc(O)c(-c3ccc(F)cc3)cc2N1", "melting point": "> 250"}
{"molecule": "C[Si](C)(C)C#Cc1cc(Cl)cnc1N", "melting point": 108}
